This note sets out measurements from US7495027B2, “3-aryl-4-hydroxyfuranone compounds and the human and animal health use thereof” (Wyeth, priority 2003, dated 2009).

In data set [1] the test system is Trichostrongylus columbriformis. As to the kind of experiment: In vivo efficacy against T. colubriformis in infected gerbils. The following applies: gerbils infected with T. colubriformis; single oral dose of 50 mg/kg by gavage; worm counts four days post-treatment; % mortality as compared to negative control. The procedure:
In Vivo Evaluation of the Efficacy of Test Compounds Against T. colubriformis
In this evaluation, gerbils are infected with Trichostrongylus columbriformis infective larvae at a concentration of approximately 800 L3/mL. Larvae for gerbil infections are cultured from feces from sheep previously infected with T. colubriformis. One week post infection, test compounds are administered by gavage as a single oral dose of 50 mg/kg of body weight. For each group of 3 gerbils, 10 mg of test compound are dissolved in 2 mL of PEG 400:DMSO (1:2 v/v) and each animal is administered the test solution at a rate of 0.1 mL/10 g of body weight. […] All animals are observed daily for morbidity and mortality. Four days post-treatment, all animals are weighed and necropsied. Worm counts are conducted with the use of stereoscopes and counters.

Data set [2] concerns C. elegans. As to the kind of experiment: Efficacy against nematodes (C. elegans motility rating). The following applies: observations at 4 h and 24 h postimmersion. More on the design: key: 0: no effect; 7: reduced movement in 24 h; 8: dead in 24 h; 9: dead in 4 h. The method in brief:
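Mixed-stage C. elegans (~50 per well, L1 to adult) in M9 buffer exposed to test compound at 100 ppm, 150 ppm or 200 μM final. Motility of larvae and adults scored under dissecting microscope at 4 h and 24 h.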

Data set [3] relates to larvae of blowfly, Lucilia sericata. As to the kind of experiment: whole plant or invertebrate. As to conditions: dose rate of 20 ppm, Lucilia sericata larvae on treated filter paper with bovine serum; for % Mortality 24 h: assessed at 24 h; for % Mortality 48 h: assessed at 48 h. How it is done:
Comparative Evaluation of the Efficacy of a 3-Aryl-4-hydroxyfuranone Compound Against Blowfly Larvae
In this evaluation, filter paper discs are treated with an acetone solution of test compound and allowed to dry. Bovine serum and newly emerged larvae of blowfly, Lucilia sericata, are added to the treated filter paper. Mortality is assessed at 24 h and 48 h. When more than one evaluation is performed, the data are averaged.

In data set [1], `Cc1ccccc1C1=C(O)C(=Cc2ccc(-c3ccccc3C)cc2)OC1=O` displayed a Mortality of 21.30%. In addition, in data set [2] (dose 150 ppm), the Rating is reported as 8.
In data set [1], `Cc1cc(/C=C2\OC(=O)C(c3cccc(Cl)c3)=C2O)ccc1-c1ccccc1C(F)(F)F` gave a Mortality of 11.20%.
The same measure, in the same setting: the value for `Cc1cc(/C=C2\OC(=O)C(c3cccc(Cl)c3)=C2O)ccc1-c1ccccc1Cl` was 16.90%.
Same read-out and setting: next, `COc1ccccc1-c1ccc(C=C2OC(=O)C(c3cccc(Cl)c3)=C2O)cc1C`: 0.00%; `COc1cc(/C=C2\OC(=O)C(c3cccc(Cl)c3)=C2O)ccc1-c1ccccc1Cl`: 0.00%.
`Cc1ccccc1-c1ccc(C=C2OC(=O)C(c3cccc(Cl)c3)=C2O)cc1C`: the Mortality in data set [1] was found to be 10.80%. Further, the Rating in data set [2] (dose 150 ppm) is recorded as 9.
On to `Cc1ccc(C2=C(O)/C(=C/c3cccc(C(F)(F)F)c3Cl)OC2=O)cc1C`, for which, in data set [1], the Mortality is 36.50%.
In turn, `O=C1O/C(=C\c2ccc(-c3ccc(Cl)c(Cl)c3)cc2)C(O)=C1c1ccc(Cl)c(Cl)c1` gave a Mortality in data set [1] of 22.00%. The compound also showed a Rating in data set [2] (dose 150 ppm) of 9.
Take `CCc1ccc(C2=C(O)C(=Cc3cc(C(F)(F)F)ccc3Cl)OC2=O)cc1`: the Mortality in data set [1] came to 39.00%.
In data set [1], `C=CCOC1=C(c2ccc(Cl)cc2)C(=O)OC1=Cc1ccc(C#N)cc1` (mixture of isomers) came in with a Mortality of 0.00%. For the same compound, the Rating in data set [2] (dose 100 ppm) amounted to 0.
For `N#Cc1ccc(-c2ccc(C=C3OC(=O)C(c4cccc(C(F)(F)F)c4)=C3O)cc2)cc1` (mixture of isomers), in that order: 47.50% and 9.
Regarding `O=C1OC(=Cc2ccc(-c3ccc(Cl)cc3)cc2)C(O)=C1c1cccc(C(F)(F)F)c1` (mixture of isomers), in data set [1], the Mortality is on record as 31.30%. In data set [2] (dose 100 ppm), this compound registered a Rating of 9.
The compound `N#Cc1cccc(C2=C(O)C(=Cc3ccc(-c4ccc(Cl)cc4)cc3)OC2=O)c1` (mixture of isomers) gave a Mortality in data set [1] of 0.00%. The Rating in data set [2] (dose 100 ppm) was 9.
For `N#Cc1ccc(-c2ccc(C=C3OC(=O)C(c4cccc(Cl)c4)=C3O)cc2)cc1` (mixture of isomers), in that order: 32.00% and 9.
For `O=C1OC(=Cc2ccc(-c3ccc(Cl)cc3)cc2)C(O)=C1c1cccc(Cl)c1` (mixture of isomers), in that order: 37.60% and 9.
As to `N#Cc1ccc(-c2ccc(C=C3OC(=O)C(c4ccc(C(F)(F)F)cc4)=C3O)cc2)cc1` (mixture of isomers), the Mortality in data set [1] worked out at 91.50%. For the same compound, in data set [2] (dose 100 ppm), the Rating is 9.
On the same counts, the results for `O=C1OC(=Cc2ccc(-c3ccc(C(F)(F)F)cc3)cc2)C(O)=C1c1ccc(Cl)cc1` (mixture of isomers) are 0.00% and 9.
On the same counts, the results for `N#Cc1ccc(-c2ccc(C=C3OC(=O)C(c4ccc(F)cc4)=C3O)cc2)cc1` (mixture of isomers) are 31.80% and 9.
On the same counts, the results for `O=C1OC(=Cc2ccc(-c3ccc(Cl)cc3)cc2)C(O)=C1c1ccc(F)cc1` (mixture of isomers) are 1.60% and 9.
`O=C1OC(=Cc2cnccc2-c2cccc(Cl)c2)C(O)=C1c1ccc(OC(F)(F)F)cc1` (mixture of isomers) displayed a Mortality in data set [1] of 66.80%.
In data set [1], `O=C1OC(=Cc2cnccc2-c2ccc(Cl)cc2)C(O)=C1c1ccc(OC(F)(F)F)cc1` (mixture of isomers) gave a Mortality of 84.60%.
Turning to `O=C1OC(=Cc2cnccc2-c2ccc(OC(F)(F)F)cc2)C(O)=C1c1ccc(OC(F)(F)F)cc1` (mixture of isomers), in data set [1], the Mortality amounted to 82.60%.
Same read-out and setting: the value for `O=C1OC(=Cc2cnccc2-c2ccc(Cl)s2)C(O)=C1c1ccc(OC(F)(F)F)cc1` (mixture of isomers) was 88.50%; that for `CCCOc1ccc(C=C2OC(=O)C(c3ccc(OC(F)(F)F)cc3)=C2O)cc1` (mixture of isomers) was 10.40%.
`N#Cc1ccc(C=C2OC(=O)C(c3ccc(-c4ccc(C#N)cc4)cc3)=C2O)cc1` (mixture of isomers): the Mortality in data set [1] is given as 29.80%. In data set [2] (dose 100 ppm), the Rating worked out at 9.
`N#Cc1ccc(-c2ccc(C3=C(O)C(=Cc4ccc(Cl)cc4)OC3=O)cc2)cc1` (mixture of isomers): the Mortality in data set [1] is given as 13.10%. The same compound returned a Rating in data set [2] (dose 100 ppm) of 9.
For `O=C1OC(=Cc2ccc(C(F)(F)F)cc2)C(O)=C1c1ccc(-c2ccc(Cl)cc2)cc1` (mixture of isomers), in that order: 21.30% and 9.
As to `N#Cc1ccc(C=C2OC(=O)C(c3ccc(-c4ccc(Cl)cc4)cc3)=C2O)cc1` (mixture of isomers), the Mortality in data set [1] amounted to 0.00%. Further, the Rating in data set [2] (dose 100 ppm) was 9.
For `O=C1OC(=Cc2ccc(Cl)cc2)C(O)=C1c1ccc(-c2ccc(Cl)cc2)cc1` (mixture of isomers), in that order: 0.00% and 9.
Take `O=C1O/C(=C\c2cccc3ccccc23)C(O)=C1c1cccc(CO)c1` [R=H, R1=3-CH2OH—C6H4, R2=1-naphthyl]: in data set [3], the “% Mortality 24 h” value is reported as 0% and the “% Mortality 48 h” value turned out to be 0%.
Consider `N#Cc1ccc(-c2ccc(/C=C3\OC(=O)C(c4ccc(Cl)cc4)=C3O)cc2)cc1` [R=H, R1=4-Cl—C6H4*, R2=4-(4′-CN-biphenyl)], for which, in data set [3], the “% Mortality 24 h” value was 0% and the “% Mortality 48 h” value is on record as 100%.
On the same counts, the results for `N#Cc1ccc(-c2ccc(/C=C3\OC(=O)C(c4ccc(Cl)cc4)=C3O)cc2)cc1` [R=H, R1=4-Cl—C6H4, R2=4-(4′-CN-biphenyl)] are 0% and 0%.
On the same counts, the results for `COc1ccc(C=C2OC(=O)C(c3ccc(Cl)cc3)=C2O)cc1` [R=H, R1=4-Cl—C6H4, R2=4-OMe—C6H4] are 0% and 0%.
For `O=C1O/C(=C\c2cccc(C(F)(F)F)c2)C(O)=C1c1ccccc1` [R=H, R1=C6H5, R2=3-CF3—C6H4], in that order: 0% and 0%.
With `O=C1O/C(=C\c2ccccc2)C(O)=C1c1ccccc1C(F)(F)F` [R=H; R1=2-CF3—C6H4; R2=C6H5], in data set [1], the Mortality amounted to 34.60%.
Same read-out and setting: next, `O=C1O/C(=C\c2ccc(-c3ccccc3F)cc2)C(O)=C1c1ccccc1F` [R=H; R1=2-F—C6H4; R2=4-(2′F-biphenyl)]: 12.40%.
The same measure, in the same setting: next, `O=C1O/C(=C\c2cc(C(F)(F)F)ccc2F)C(O)=C1c1cccc(-c2ccccc2)c1` [R=H; R1=3-biphenyl; R2=2-F-5-CF3—C6H4]: 38.40%; `O=C1O/C(=C\c2cc(F)cc(C(F)(F)F)c2)C(O)=C1c1cccc(-c2ccccc2)c1` [R=H; R1=3-biphenyl; R2=3-F-5-CF3—C6H4]: 0.00%.
In data set [1], `O=C1O/C(=C\c2ccc(Cl)cc2)C(O)=C1c1ccc(-c2ccccc2)c(F)c1` [R=H; R1=4-(3-F-biphenyl); R2=4-CI-C6H4] gave a Mortality of 22.00%.
Same read-out and setting: the value for `O=C1O/C(=C\c2cccc(Cl)c2)C(O)=C1c1ccc(Cl)cc1` [R=H; R1=4-Cl—C6H4; R2=3-CI-C6H4] was 25.40%; that for `O=C1O/C(=C\c2cc(C(F)(F)F)ccc2Cl)C(O)=C1c1ccc(-c2ccccc2)cc1` [R=H; R1=4-biphenyl; R2=2-Cl—5-CF3—C6H4] was 38.40%.
